Patent US20130096135A1, “Selected Inhibitors of Protein Tyrosine Kinase Activity” (METHYLGENE INC., priority 2011, published 2013)
In brackets after ≈: the same amount, converted by molar mass.

Experiments:
[1] = molecular target: T1, VEGF receptor KDR (VEGFR2) (Homo sapiens, UniProt P35968); experiment: In vitro receptor tyrosine kinase assay (VEGF receptor KDR), DELFIA; type: biochemical; details: recombinant GST-VEGFR2 (806-1356), ATP 0.6 uM, enzyme 5 nM; read-out: VEGFR_IC50_UM
T1 construct: made in house; host or cells: Sf9 cells (Spodoptera frugiperda), baculovirus
Text: In Vitro Receptor Tyrosine Kinase Assay (VEGF receptor KDR)
This test measures the ability of compounds to inhibit the enzymatic activity of recombinant human VEGF receptor enzymatic activity.
A 1.6-kb cDNA corresponding to the catalytic domain of VEGFR2 (KDR) (Genbank accession number AF035121 amino acid 806 to 1356) is cloned into the Pst I site of the pDEST20 Gateway vector (Invitrogen) for the production of a GST-tagged version of that enzyme. This construct is used to generate recombinant baculovirus using the Bac-to-Bac™ system according to the manufacturer's instructions (Invitrogen).
The GST-VEGFR2806-1356 protein is expressed in Sf9 cells (Spodoptera frugiperda) upon infection with recombinant baculovirus construct. Briefly, Sf9 cells grown in suspension and maintained in serum-free medium (Sf900 II supplemented with gentamycin) at a cell density of about 2×10^6 cells/ml are infected with the above-mentioned viruses at a multiplicity of infection (MOI) of 0.1 during 72 hours at 27° C. with agitation at 120 rpm on a rotary shaker. Infected cells are harvested by centrifugation at 398g for 15 min. Cell pellets are frozen at −80° C. until purification is performed.
All steps described in cell extraction and purification are performed at 4° C. Frozen Sf9 cell pellets infected with the GST-VEGFR2806-1356 recombinant baculovirus are thawed and gently resuspended in Buffer A (PBS pH 7.3 supplemented with 1 μg/ml pepstatin, 2 μg/ml Aprotinin and leupeptin, 50 μg/ml PMSF, 50 μg/ml TLCK and 10 μM E64 and 0.5 mM DTT) using 3 ml of buffer per gram of cells. Suspension is Dounce homogenized and 1% Triton X-100 is added to the homogenate after which it is centrifuged at 22500 g, 30 min., 4 °C. The supernatant (cell extract) is used as starting material for purification of GST-VEGFR2806-1356.
The supernatant is loaded onto a GST-agarose column (Sigma) equilibrated with PBS pH 7.3. Following a four column volume (CV) wash with PBS pH 7.3+1% Triton X-100 and 4 CV wash with buffer B (50mM Tris pH 8.0, 20% glycerol and 100mM NaCl), bound proteins are step eluted with 5 CV of buffer B supplemented with 5 mM DTT and 15 mM glutathion. GST-VEGFR2806-1356 enriched fractions from this chromatography step are pooled based on U.V. trace i.e. fractions with high 0.D.280. Final GST-VEGFR2806-1356 protein preparations concentrations are about 0.7 mg/ml with purity approximating 70%. Purified GST-VEGFR2806-1356 protein stocks are aliquoted and frozen at −80° C. prior to use in enzymatic assay.
Inhibition of VEGFR/KDR is measured in a DELFIATM assay (Perkin Elmer). The substrate poly(Glu4, Tyr) is immobilized onto black high-binding polystyrene 96-well plates. The coated plates are washed and stored at 4° C. During the assay, the enzyme is pre-incubated with inhibitor and Mg-ATP on ice in polypropylene 96-well plates for 4 minutes, and then transferred to the coated plates. The subsequent kinase reaction takes place at 30° C. for 10-30 minutes. ATP concentrations in the assay are 0.6 uM for VEGFR/KDR (2× the Km). Enzyme concentration is 5 nM. After incubation, the kinase reactions are quenched with EDTA and the plates are washed. Phosphorylated product is detected by incubation with Europium-labeled anti-phosphotyrosine MoAb. After washing the plates, bound MoAb is detected by time-resolved fluorescence in a Gemini SpectraMax reader (Molecular Devices). Compounds are evaluated over a range of concentrations, and IC50 values (concentration of compounds giving 50% inhibition of enzymatic activity) are determined.

[2] = Solubility measurements in PBS (pH 7.4), filtration, HPLC-UV; type: physicochemical; details: PBS (pH 7.4) with 1% DMSO, aqueous buffer, kinetic from dmso stock, PBS pH 7.4, 100 μM test substance, room temperature
Method: The solubility of each substance was assessed using MultiScreen® HTS 96-well filtration system (filter; polycarbonate, pore size; 0.4 μm, Millipore). DMSO stock solutions of each test substance (10 mM) were prepared to initiate the assay. The equilibration was performed in PBS (pH 7.4) containing 100 μM of a test substance and 1% DMSO, for 24 hours at room temperature with shaking The concentrations of test substances in each filtrate were determined by HPLC-UV.
HPLC conditions were following:
Waters ACQUITY UPLC H class instrument.
Eluent A: 10 mM aqueous Ammonium formate
Eluent B: 0.1 volume % formic acid in acetonitrile
Flow: 1 mL/min, UV: 316 nm

T1 sequence (P35968 806-1356): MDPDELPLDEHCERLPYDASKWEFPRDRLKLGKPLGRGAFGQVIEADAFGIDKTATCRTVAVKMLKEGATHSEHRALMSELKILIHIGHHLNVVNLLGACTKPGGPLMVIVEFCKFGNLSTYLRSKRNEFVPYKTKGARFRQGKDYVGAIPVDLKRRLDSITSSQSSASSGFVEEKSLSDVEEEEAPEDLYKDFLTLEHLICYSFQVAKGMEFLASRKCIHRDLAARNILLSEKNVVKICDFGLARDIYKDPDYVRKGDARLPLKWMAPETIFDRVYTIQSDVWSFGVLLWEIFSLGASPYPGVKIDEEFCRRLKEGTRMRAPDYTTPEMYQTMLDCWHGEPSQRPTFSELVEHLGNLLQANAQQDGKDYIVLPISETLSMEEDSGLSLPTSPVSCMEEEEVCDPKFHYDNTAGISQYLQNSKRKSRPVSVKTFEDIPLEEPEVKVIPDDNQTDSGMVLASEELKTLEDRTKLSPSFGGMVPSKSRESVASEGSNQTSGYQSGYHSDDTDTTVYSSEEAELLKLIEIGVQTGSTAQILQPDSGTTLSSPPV

IC50 [1] [nM]	solubility at 24 h [2] [µM]	SMILES
4	6.46 (≈ 3.73 µg/mL)	C[C@H](O)CN1CCN(Cc2ccc(-c3cc4nccc(Oc5ccc(NC(=O)NC6CC6)cc5F)c4s3)nc2)CC1 [Compound 30]
1	1.19 (≈ 0.72 µg/mL)	CC(C)(O)C(=O)N1CCN(Cc2ccc(-c3cc4nccc(Oc5ccc(NC(=O)NC6CC6)cc5F)c4s3)nc2)CC1 [Compound 35-A, 1-Cyclopropyl-3-(3-fluoro-4-(2-(5-((4-(2-hydroxy-2-methylpropanoyl)piperazin-1-yl)methyl)pyridin-2-yl)thieno[3,2-b]pyridin-7-yloxy)phenyl)urea]
20		CC(C)C(=O)OCC(=O)N1CCN(Cc2ccc(-c3cc4nccc(Oc5ccc(NC(=O)NC6CC6)cc5F)c4s3)nc2)CC1 [Compound 80, 2-(4-((6-(7-(4-(3-Cyclopropylureido)-2-fluorophenoxy)thieno[3,2-b]pyridin-2-yl)pyridin-3-yl)methul)piperazin 1-yl)-2-oxoethyl isobutrate]
4		CC(=O)OC(C)(C)C(=O)N1CCN(Cc2ccc(-c3cc4nccc(Oc5ccc(NC(=O)NC6CC6)cc5F)c4s3)nc2)CC1 [Compound 35, 1-(4-((6-(7-(4-(3-Cyclopropylureido)-2-fluorophenoxy)thieno[3,2-b]pyridin-2-yl)pyridin-3-yl)methyl)piperazin-1-yl)-2-methyl-1-oxopropan-2-yl acetate]
7		CN(CCO)C(=O)[C@H]1CCCN(Cc2ccc(-c3cc4nccc(Oc5ccc(NC(=O)NC6CC6)cc5F)c4s3)nc2)C1 [Compound 11, (S)-1-((6-(7-(4-(3-Ccyclopropylureido)-2-fluorophenoxy)thieno[3,2-b]pyridin-2-yl)pyridin-3-yl)methyl)-N-(2-hydroxyethyl)-N-methylpiperidine-3-carboxamide]
7		O=C(Nc1ccc(Oc2ccnc3cc(-c4ccc(CN5CCCC(C(=O)N6CC[C@@H](O)C6)C5)cn4)sc23)c(F)c1)NC1CC1 (stereo partly drawn) [Compound 7, 1-Cyclopropyl-3-(3-fluoro-4-(2-(5-((3-((R)-3-hydroxypyrrolidine-1-carbonyl)piperidin-1-yl)methyl)pyridin-2-yl)thieno[3,2-b]pyridin-7-yloxy)phenyl)urea]
10		O=C(Nc1ccc(Oc2ccnc3cc(-c4ccc(CN5CCN(C(=O)CS)CC5)cn4)sc23)c(F)c1)NC1CC1 [Compound 114, 1-Cyclopropyl-3-(3-fluoro-4-(2-(5-((4-(2-mercaptoacetyl)piperazin-1-yl)methyl)pyridin-2-yl)thieno[3,2-b]pyridin-7-yloxy)phenyl)urea]
